Experimental data: US20090298108A1, “Method for Identifying PDE11 Modulators” (priority 2005, published 2009)
Entries after “also recorded” stand apart in the source; their conditions may differ.

Test system: PDE11A4/CyaB1-chimera
Experiment: Adenylate cyclase activity assay of PDE11A4/CyaB1-chimera (conversion of [α-32P]-ATP to cAMP)
Format: biochemical, human

Nc1nc2c(ncn2[C@@H]2O[C@@H]3COP(=O)(O)O[C@H]3[C@H]2O)c(=O)[nH]1 [cGMP]
% basal value (1 mM of cyclic nucleotide, relative to basal enzyme activity): 400%
Classification as PDE11A4-GAF agonist / antagonist (from dose-effect curve, FIG. 5): PDE11A4-GAF agonist; also recorded: selectively activates the GAF domain of PDE11 as agonist
